Laboratory results taken from patent publication US20120288885A1, “METHOD AND KIT FOR MEASURING ENZYMATIC ACTIVITIES OF VARIOUS CYTOCHROME P450 MOLECULE SPECIES COMPREHENSIVELY AND WITH HIGH EFFICIENCY” (NATIONAL INSTITUTE OF ADVANCED INDUSTRIAL SCIENCE AND …, priority 2009, published 2012).
Blank lines part the entries; values can stand above or below the molecule they belong to.

How the values were obtained:
[1] = target: T1, human CYP1A1 (Homo sapiens, UniProt P04798); experiment: Substrate metabolic activity on immobilized P450/oxygen sensor vertically integrated chip (fluorescence response of oxygen sensor); format: in vitro ADME; conditions: 0.5 mM chlortoluron
T1 construct: made in house; host or cells: E. coli DH5alpha, membrane fraction
T1 sequence (P04798 1-512): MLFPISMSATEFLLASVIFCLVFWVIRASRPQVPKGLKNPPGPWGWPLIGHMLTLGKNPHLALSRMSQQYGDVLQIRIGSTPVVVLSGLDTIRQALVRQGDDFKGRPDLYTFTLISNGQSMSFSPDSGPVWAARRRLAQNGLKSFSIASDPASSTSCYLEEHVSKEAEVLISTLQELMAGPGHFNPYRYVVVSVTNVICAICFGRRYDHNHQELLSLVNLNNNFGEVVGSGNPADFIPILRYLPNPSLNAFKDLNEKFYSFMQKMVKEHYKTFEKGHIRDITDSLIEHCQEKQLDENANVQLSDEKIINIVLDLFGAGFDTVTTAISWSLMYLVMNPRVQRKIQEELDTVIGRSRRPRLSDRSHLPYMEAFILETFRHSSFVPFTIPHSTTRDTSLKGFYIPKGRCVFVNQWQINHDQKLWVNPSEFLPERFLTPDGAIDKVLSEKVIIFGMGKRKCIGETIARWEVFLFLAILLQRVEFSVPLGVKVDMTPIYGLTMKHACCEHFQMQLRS
Description: A ruthenium complex (Ru(dpp)3Cl2) doped sol solution was prepared as described in Anal. Chem. 75 (2003) 2407-2413 with small modifications as follows. TEOS (0.29 mL) was mixed with 0.612 mL of octyl-triEOS, 0.625 mL of ethanol, and 0.2 mL of 0.1 M HCl by stirring for 1 hour at room temperature. Then, 1.725 mL of ethanol was added to the solution to dilute the sol in order to improve the quality of the oxygen sensing film to be ultimately formed. The solution was further stirred for 1 hour. To prepare an Ru(dpp)3Cl2 doped sol, 100 μL of 2 mM Ru(dpp)3Cl2 in ethanol was mixed with 300 μL of the above-mentioned sol solution. This solution was capped and stirred for 30 min, and 10 μL thereof was pipetted into each well of the microplate. The microplate was stored in the dark at room temperature for gelling and aging for 6 days. In order to increase the hydrophilicity of the surface of the oxygen sensor to improve the attachment with hydrogel, the surface of the microarrays was modified with poly (vinyl acetate) (PVAC).
Agarose was dissolved in deionized water to form a 1.3% (w/w) solution at 60° C. This solution was cooled to about 38° C. […] The microarrays were kept in a refrigerator at 4° C. until use.
TEOS sol was prepared by mixing 0.5 mL of TEOS, 0.25 mL of deionized water, and 12.5 μL of 0.1 M HCl and stirring for 3 hours to form a homogeneous sol. The sol was diluted four times with deionized water. […]
In order to measure the substrate metabolic activities using an immobilized P450/oxygen sensor vertically integrated chip (i.e., a chip comprising an immobilized P450 and an oxygen sensor vertically integrated therein), a study was conducted using immobilized human CYP1A1 as the P450 and chlortoluron (a herbicide) as a substrate. […] After the addition of the substrate solution into the microarrays, the microplate was quickly placed onto the platform of a microplate reader for the fluorescence measurement. Fluorescence intensity was recorded every 5 min for 3 hours.

[2] = target: T1, human CYP1A1; experiment: Competitive assay between fluorogenic substrate (7-ER) and non-fluorogenic substrate using caged-G6P; format: biochemical; conditions: benzopyrene 0.1 and 1 μM; 7-ER 0.1 to 1.5 μM
Description: A competitive assay between a fluorogenic substrate (7-ER) and a non-fluorogenic substrate (benzopyrene) was conducted using caged-G6P. An aqueous solution obtained by mixing the following components was used as the reaction liquid: 50 μL of 1 M potassium phosphate buffer solution, 30 μL of 5 mM caged-G6P, 2.89 μL of 69.3 U/mL glucose-6-phosphate […], 15 μL of 100 mM magnesium chloride, 1 μL of 5 mM NADP aqueous solution, 10.25 μL of P450 membrane fractions (human CYP1A1), 5 μL of 0.1 M dithiothreitol, and 379.61 μL of ultrapure water. The 7-ER concentration was varied from 0.1 μM to 1.5 μM. The benzopyrene concentrations were 0.1 μM and 1 μM. After UV light irradiation, incubation was performed for 30 minutes to carry out the P450 enzymatic reaction. Thereafter, 25 μL of 30% trichloroacetic acid was added thereto to terminate the enzymatic reaction. By adding 500 μL of chloroform to the reaction liquid and stirring the mixture for 1 minute, the […] (7HR) generated by the reaction was extracted in chloroform. […] After centrifuging for 1 minute, the […] was transferred to a cuvette, and the fluorescence spectra thereof were measured under the following conditions. Excitation wavelength: 366 nm, fluorescence wavelength: 380 to 600 nm. The maximum fluorescence was used to quantify the 7HR. […]

[3] = target: T2, CYP3A5 (Homo sapiens, UniProt P20815); format: in vitro ADME
T2 construct: made in house; host or cells: E. coli membrane fraction (inferred from the pCW negative control and the general expression paragraph)
T2 sequence (P20815 whole entry): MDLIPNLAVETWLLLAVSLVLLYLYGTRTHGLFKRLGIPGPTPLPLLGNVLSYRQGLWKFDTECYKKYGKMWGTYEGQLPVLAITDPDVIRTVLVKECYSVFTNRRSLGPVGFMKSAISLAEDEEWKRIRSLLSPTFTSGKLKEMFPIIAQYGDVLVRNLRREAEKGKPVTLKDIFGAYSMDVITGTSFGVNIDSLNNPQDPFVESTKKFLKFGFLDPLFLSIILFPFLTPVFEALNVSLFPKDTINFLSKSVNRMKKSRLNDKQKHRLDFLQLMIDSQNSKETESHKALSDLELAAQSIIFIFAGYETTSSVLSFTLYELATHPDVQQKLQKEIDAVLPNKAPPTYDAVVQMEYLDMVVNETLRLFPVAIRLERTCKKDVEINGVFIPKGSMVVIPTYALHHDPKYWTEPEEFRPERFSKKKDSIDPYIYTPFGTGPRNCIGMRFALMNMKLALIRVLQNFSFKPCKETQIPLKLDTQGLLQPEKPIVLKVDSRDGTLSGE
Description: Using a 96-well microplate, the activity of various human P450 molecular species in oxygen sensor/immobilized P450 toward capsaicin was evaluated. The response to a solution with a substrate was compared to the response to a solution without a substrate and the activity of each molecular species was standardized. CYP2C9, CYP1A2, CYP2D6, CYP3A4, CYP2B6, CYP2C19(1A,1B), CYP2E1, CYP1A1, CYP2C8, CYP2W1, CYP4X1, CYP17A1, CYP27A1, CYP51A1, CYP2A6, CYP2A13, CYP1B1, CYP2C18, CYP2J2, CYP3A5, CYP2R1 and CYP2B6 were used as the P450. Furthermore, a membrane fraction (pCW) derived from E. coli was used as a negative control without human P450. […] The longitudinal axis of FIG. 11 indicates the value obtained by dividing the value of the response with a substrate by the value of the response without a substrate (background oxygen consumption) and standardizing the obtained value. As is clear from the figure, various molecular species show activity toward each compound. […] This also indicates the possibility that activities of human P450 toward pharmaceutical compounds and like compounds can be detected in a parallel manner.

SMILES: Cc1ccc(NC(=O)N(C)C)cc1Cl [chlortoluron]
change in fluorescence intensity of the oxygen sensing layer (oxygen consumption due to metabolic reaction) ([1]; P450 encapsulated in Ludox silica gel): only a limited increase | change in fluorescence intensity of the oxygen sensing layer (oxygen consumption due to metabolic reaction) ([1]; P450 encapsulated in TEOS silica gel): no significant fluorescence increase | change in fluorescence intensity of the oxygen sensing layer (oxygen consumption due to metabolic reaction) ([1]; P450 encapsulated in agarose gel, versus NADPH solution without substrate): significantly increased

SMILES: c1ccc2c(c1)c1cccc3ccc4cccc2c4c31 [benzopyrene]
mode of inhibition of 7-ER metabolism (effect on initial reaction velocity) [2]: noncompetitive inhibitor

oxygen sensor response normalized by the response toward a solution without a substrate (peak height, FIG. 11) [3]: particularly high
SMILES: COc1cc(CNC(=O)CCCC/C=C/C(C)C)ccc1O [capsaicin]
